Laboratory results as given in the kinase profiling compilation of Christmann-Franck et al. (2016).

Columns and labels:
Assay in all cases: KINOMEscan competition binding
MYLK3 (human) = MYLK3 (human) (UniProt Q32MK0)
MAP3K12 (human) = MAP3K12 (human) (UniProt Q12852)
ERBB4 (human) = ERBB4 (human) (UniProt Q15303)
Sequence of ERBB4 (human) (Q15303 whole entry, looked up): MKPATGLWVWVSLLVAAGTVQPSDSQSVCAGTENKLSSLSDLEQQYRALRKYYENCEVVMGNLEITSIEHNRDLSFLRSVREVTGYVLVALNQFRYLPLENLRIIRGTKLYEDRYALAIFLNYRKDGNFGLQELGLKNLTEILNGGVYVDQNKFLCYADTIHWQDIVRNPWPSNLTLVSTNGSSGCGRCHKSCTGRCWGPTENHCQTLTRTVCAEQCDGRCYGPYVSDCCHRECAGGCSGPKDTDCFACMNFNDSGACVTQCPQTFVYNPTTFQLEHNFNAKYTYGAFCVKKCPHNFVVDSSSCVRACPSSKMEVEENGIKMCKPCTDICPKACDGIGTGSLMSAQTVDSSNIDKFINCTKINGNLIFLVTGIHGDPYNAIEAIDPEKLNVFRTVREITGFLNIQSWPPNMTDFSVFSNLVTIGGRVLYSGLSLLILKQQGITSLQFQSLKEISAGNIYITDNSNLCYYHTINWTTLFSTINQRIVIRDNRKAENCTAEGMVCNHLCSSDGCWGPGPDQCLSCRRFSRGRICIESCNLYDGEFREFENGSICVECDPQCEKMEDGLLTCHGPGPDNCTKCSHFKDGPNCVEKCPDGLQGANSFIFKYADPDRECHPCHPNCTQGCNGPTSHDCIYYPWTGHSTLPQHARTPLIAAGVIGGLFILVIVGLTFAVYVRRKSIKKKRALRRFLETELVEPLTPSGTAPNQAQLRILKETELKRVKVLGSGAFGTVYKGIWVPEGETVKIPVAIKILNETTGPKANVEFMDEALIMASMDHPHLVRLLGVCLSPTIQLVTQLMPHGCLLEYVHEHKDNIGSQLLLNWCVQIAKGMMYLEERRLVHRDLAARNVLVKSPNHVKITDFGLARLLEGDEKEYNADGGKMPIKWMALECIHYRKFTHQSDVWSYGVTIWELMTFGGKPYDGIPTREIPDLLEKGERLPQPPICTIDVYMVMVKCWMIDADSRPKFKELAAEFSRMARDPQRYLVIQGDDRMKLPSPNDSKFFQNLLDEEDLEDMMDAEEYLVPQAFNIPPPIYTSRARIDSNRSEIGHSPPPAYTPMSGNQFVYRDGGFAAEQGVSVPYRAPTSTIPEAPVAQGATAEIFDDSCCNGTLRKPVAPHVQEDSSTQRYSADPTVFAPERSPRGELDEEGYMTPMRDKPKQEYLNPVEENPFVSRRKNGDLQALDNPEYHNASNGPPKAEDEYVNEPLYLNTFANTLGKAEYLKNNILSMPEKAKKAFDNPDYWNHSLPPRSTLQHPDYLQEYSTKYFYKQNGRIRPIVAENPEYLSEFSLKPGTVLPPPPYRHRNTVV

Sequence of MAP3K12 (human) (Q12852 whole entry, looked up): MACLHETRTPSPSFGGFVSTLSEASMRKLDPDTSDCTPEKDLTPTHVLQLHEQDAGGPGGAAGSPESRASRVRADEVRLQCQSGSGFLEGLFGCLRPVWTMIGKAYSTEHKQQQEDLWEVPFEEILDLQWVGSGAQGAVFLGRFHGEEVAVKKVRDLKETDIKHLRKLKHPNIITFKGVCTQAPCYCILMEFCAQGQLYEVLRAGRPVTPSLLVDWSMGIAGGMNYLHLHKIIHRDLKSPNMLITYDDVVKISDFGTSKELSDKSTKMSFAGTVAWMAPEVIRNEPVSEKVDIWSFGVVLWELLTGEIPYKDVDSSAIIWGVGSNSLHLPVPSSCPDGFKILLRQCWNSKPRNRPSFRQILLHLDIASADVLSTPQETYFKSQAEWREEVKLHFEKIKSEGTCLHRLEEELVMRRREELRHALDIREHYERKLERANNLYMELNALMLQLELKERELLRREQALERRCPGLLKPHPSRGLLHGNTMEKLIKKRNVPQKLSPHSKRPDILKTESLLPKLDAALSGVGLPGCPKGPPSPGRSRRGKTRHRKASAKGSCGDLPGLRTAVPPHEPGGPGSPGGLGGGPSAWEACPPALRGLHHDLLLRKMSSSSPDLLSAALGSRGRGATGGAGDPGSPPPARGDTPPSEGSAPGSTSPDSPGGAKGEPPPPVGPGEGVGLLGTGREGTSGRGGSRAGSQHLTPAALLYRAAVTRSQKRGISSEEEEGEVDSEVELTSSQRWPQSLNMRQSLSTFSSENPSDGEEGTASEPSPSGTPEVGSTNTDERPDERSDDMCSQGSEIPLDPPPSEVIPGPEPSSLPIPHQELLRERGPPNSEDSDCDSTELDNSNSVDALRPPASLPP
Sequence of MYLK3 (human) (Q32MK0 whole entry, looked up): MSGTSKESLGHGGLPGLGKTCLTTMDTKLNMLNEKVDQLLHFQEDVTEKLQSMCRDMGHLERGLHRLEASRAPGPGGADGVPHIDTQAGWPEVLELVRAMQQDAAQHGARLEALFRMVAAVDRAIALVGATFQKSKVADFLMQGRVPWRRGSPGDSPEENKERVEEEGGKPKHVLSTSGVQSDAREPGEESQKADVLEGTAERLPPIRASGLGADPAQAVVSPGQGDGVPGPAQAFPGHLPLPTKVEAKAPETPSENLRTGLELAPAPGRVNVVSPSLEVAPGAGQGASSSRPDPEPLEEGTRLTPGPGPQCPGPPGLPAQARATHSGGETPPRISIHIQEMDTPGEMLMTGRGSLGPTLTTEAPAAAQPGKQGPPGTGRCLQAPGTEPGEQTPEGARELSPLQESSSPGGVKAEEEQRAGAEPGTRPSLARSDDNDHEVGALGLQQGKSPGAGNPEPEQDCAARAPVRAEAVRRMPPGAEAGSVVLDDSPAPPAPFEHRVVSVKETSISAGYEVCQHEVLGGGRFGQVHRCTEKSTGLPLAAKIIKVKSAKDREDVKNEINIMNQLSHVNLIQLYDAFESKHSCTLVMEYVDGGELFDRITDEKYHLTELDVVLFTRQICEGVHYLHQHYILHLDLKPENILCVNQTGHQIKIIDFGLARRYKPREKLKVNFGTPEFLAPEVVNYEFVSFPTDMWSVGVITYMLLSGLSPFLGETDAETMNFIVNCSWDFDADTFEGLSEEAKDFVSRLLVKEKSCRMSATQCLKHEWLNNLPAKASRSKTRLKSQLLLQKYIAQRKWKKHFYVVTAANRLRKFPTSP

Oc1ccc(-c2nc(-c3ccc(F)cc3)c(-c3ccncc3)[nH]2)cc1
Kd (MYLK3 (human)): > 10 µM
Kd (MAP3K12 (human)): > 10 µM
Kd (ERBB4 (human)): > 10 µM

NC(=O)c1ccc(-c2nc(-c3ccccn3)c(-c3ccc4c(c3)OCO4)[nH]2)cc1
Kd (MYLK3 (human)): > 10 µM
Kd (MAP3K12 (human)): > 10 µM
Kd (ERBB4 (human)): > 10 µM

COCC(=O)NC/C=C/c1ccc2ncnc(Nc3ccc(Oc4ccc(C)nc4)c(C)c3)c2c1
Kd (MYLK3 (human)): > 10 µM
Kd (MAP3K12 (human)): > 10 µM

CCOc1cc2ncc(C#N)c(Nc3ccc(F)c(Cl)c3)c2cc1NC(=O)/C=C/CN(C)C
Kd (MYLK3 (human)): > 10 µM

Nc1nc(Nc2ccc(S(N)(=O)=O)cc2)nn1C(=O)c1c(F)cccc1F
Kd (MYLK3 (human)): > 10 µM
Kd (ERBB4 (human)): > 10 µM
